Source: patent US10219516B2, “Molecules having pesticidal utility, and intermediates, compositions, and processes, related thereto” (priority 2015, dated 2019)

What was measured:
Assay type in all cases: in vivo
[1] = tested on: Cabbage Looper (Trichoplusia ni, TRIPNI); test: Bioassay on Cabbage Looper (CL), 128-well diet tray assay; settings: Trichoplusia ni; Cabbage Looper, 128-well diet tray assay; read-out: CL rating
How it was run: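 Second-instar larvae, one to five per well, placed on artificial diet treated with 50 μg/cm^2 test molecule in 90:10 acetone-water, dried before infestation. Held 5–7 days at 25° C, 14:10 light-dark; percent mortality averaged over eight wells.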

[2] = tested on: Beet Armyworm (Spodoptera exigua, LAPHEG); test: Bioassay on Beet Armyworm (BAW), 128-well diet tray assay; settings: Beet Armyworm, 128-well diet tray assay, read-out: BAW rating
How it was run: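 Second instar larvae were exposed to diet treated at 50 μg/cm^2 for five to seven days at 25° C.; mortality was averaged over eight wells.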

[3] = tested on: Yellow Fever Mosquito (Aedes aegypti, AEDSAE); test: Bioassay on Yellow Fever Mosquito (YFM), 96-well plate larval assay; settings: Yellow Fever Mosquito, 96-well plate larval assay
How it was run: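 Each well was scored for mortality after 3 days at room temperature under a non-evaporative lid. Test molecules came from DMSO masters (4000 ppm stock) diluted with water/acetone 90:10 and dispensed into six replicate plates, which were then infested with roughly 1-day-old larvae in liver-powder water.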

Structure (SMILES): O=C(Nc1ccc(F)cc1[N+](=O)[O-])c1cc(NC(=O)[C@H]2[C@H](c3ccc(Cl)c(Cl)c3)C2(Cl)Cl)ccc1Cl [F555, 2-Chloro-5-((1R,3R)-2,2-dichloro-3-(3,4-dichlorophenyl)cyclopropane-1-carboxamido)-N-(4-fluoro-2-nitrophenyl)benzamide]
- pest or weed control at 50 µg/cm2 [1]: 50 to 100%
- pest or weed control at 50 µg/cm2 [2]: 50 to 100%
- YFM rating [3]: A (80-100)

Structure (SMILES): O=C(Nc1ccc(F)cc1[N+](=O)[O-])c1cc(NC(=O)[C@H]2[C@H](c3cc(Cl)c(Cl)c(Cl)c3)C2(Cl)Cl)ccc1Cl [F556, 2-Chloro-5-((1R,3R)-2,2-dichloro-3-(3,4,5-trichlorophenyl)cyclopropane-1-carboxamido)-N-(4-fluoro-2-nitrophenyl)benzamide]
- pest or weed control at 50 µg/cm2 [1]: 50 to 100%
- pest or weed control at 50 µg/cm2 [2]: 50 to 100%
- YFM rating [3]: A (80-100)

Structure (SMILES): O=C(Nc1ccc(F)cc1[N+](=O)[O-])c1cc(NC(=O)[C@H]2[C@H](c3ccc(F)c(Cl)c3)C2(Cl)Cl)ccc1Cl [F557, 2-Chloro-5-((1R,3R)-2,2-dichloro-3-(3-chloro-4-fluorophenyl)cyclopropane-1-carboxamido)-N-(4-fluoro-2-nitrophenyl)benzamide]
- pest or weed control at 50 µg/cm2 [1]: 50 to 100%
- pest or weed control at 50 µg/cm2 [2]: 50 to 100%
- YFM rating [3]: A (80-100)

Structure (SMILES): O=C(NC1CCc2ncccc2C1)c1cc(NC(=O)C2C(c3cc(Cl)cc(Cl)c3)C2(Cl)Cl)ccc1Cl (stereo not drawn) [F567, 2-Chloro-5-trans-(2,2-dichloro-3-(3,5-dichlorophenyl)cyclopropane-1-carboxamido)-N-(5,6,7,8-tetrahydroquinolin-6-yl)benzamide]
- pest or weed control at 50 µg/cm2 [1]: 50 to 100%
- pest or weed control at 50 µg/cm2 [2]: 50 to 100%
- YFM rating [3]: A (80-100)

Structure (SMILES): Nc1cc(F)c(NC(=O)c2cc(NC(=O)[C@H]3[C@H](c4cc(Cl)cc(Cl)c4)C3(Cl)Cl)ccc2Cl)cc1F [F568, trans-N-(4-Amino-2,5-difluorophenyl)-2-chloro-5-((1R,3R)-2,2-dichloro-3-(3,5-dichlorophenyl)cyclopropane-1-carboxamido)benzamide]
- pest or weed control at 50 µg/cm2 [1]: 50 to 100%
- pest or weed control at 50 µg/cm2 [2]: 50 to 100%
- YFM rating [3]: A (80-100)

Structure (SMILES): Nc1cc(F)c(NC(=O)c2cc(NC(=O)[C@H]3[C@H](c4ccc(Cl)c(Cl)c4)C3(Cl)Cl)ccc2Cl)cc1F [F569, trans-N-(4-Amino-2,5-difluorophenyl)-2-chloro-5-((1R,3R)-2,2-dichloro-3-(3,4-dichlorophenyl)cyclopropane-1-carboxamido)benzamide]
- pest or weed control at 50 µg/cm2 [1]: 50 to 100%
- pest or weed control at 50 µg/cm2 [2]: 50 to 100%
- YFM rating [3]: A (80-100)

Structure (SMILES): Nc1cc(F)c(NC(=O)c2cc(NC(=O)[C@H]3[C@H](c4cc(Cl)c(Cl)c(Cl)c4)C3(Cl)Cl)ccc2Cl)cc1F [F570, trans-N-(4-Amino-2,5-difluorophenyl)-2-chloro-5-((1R,3R)-2,2-dichloro-3-(3,4,5-trichlorophenyl)cyclopropane-1-carboxamido)benzamide]
- pest or weed control at 50 µg/cm2 [1]: 50 to 100%
- pest or weed control at 50 µg/cm2 [2]: 50 to 100%
- YFM rating [3]: A (80-100)

Structure (SMILES): Nc1cc(F)c(NC(=O)c2cc(NC(=O)[C@H]3[C@H](c4ccc(F)c(Cl)c4)C3(Cl)Cl)ccc2Cl)cc1F [F571, trans-N-(4-Amino-2,5-difluorophenyl)-2-chloro-5-((1R,3R)-2,2-dichloro-3-(3-chloro-4-fluorophenyl)cyclopropane-1-carboxamido)benzamide]
- pest or weed control at 50 µg/cm2 [1]: 50 to 100%
- pest or weed control at 50 µg/cm2 [2]: 50 to 100%
- YFM rating [3]: A (80-100)

Structure (SMILES): O=C(Nc1ccc(F)cc1F)c1cc(NC(=O)[C@H]2[C@H](c3ccc(Cl)c(Br)c3)C2(Cl)Cl)ccc1Cl [F572, 5-((1R,3R)-3-(3-Bromo-4-chlorophenyl)-2,2-dichlorocyclopropane-1-carboxamido)-2-chloro-N-(2,4-difluorophenyl)benzamide]
- pest or weed control at 50 µg/cm2 [1]: 50 to 100%
- pest or weed control at 50 µg/cm2 [2]: 50 to 100%
- YFM rating [3]: A (80-100)

Structure (SMILES): O=C(Nc1ccc(F)cc1F)c1cc(NC(=O)[C@@H]2[C@@H](c3ccc(Cl)c(Br)c3)C2(Cl)Cl)ccc1Cl [F573, 5-((1S,3S)-3-(3-Bromo-4-chlorophenyl)-2,2-dichlorocyclopropane-1-carboxamido)-2-chloro-N-(2,4-difluorophenyl)benzamide]
- pest or weed control at 50 µg/cm2 [1]: 50 to 100%
- pest or weed control at 50 µg/cm2 [2]: 50 to 100%
- YFM rating [3]: A (80-100)

Structure (SMILES): Nc1cc(F)ccc1NC(=O)c1cc(NC(=O)[C@H]2[C@H](c3cc(Cl)cc(Cl)c3)C2(Cl)Cl)ccc1Cl [F575, N-(2-Amino-4-fluorophenyl)-2-chloro-5-((1R,3R)-2,2-dichloro-3-(3,5-dichlorophenyl)cyclopropane-1-carboxamido)benzamide]
- pest or weed control at 50 µg/cm2 [1]: 50 to 100%
- pest or weed control at 50 µg/cm2 [2]: 50 to 100%
- YFM rating [3]: A (80-100)

Structure (SMILES): Nc1cc(F)ccc1NC(=O)c1cc(NC(=O)[C@H]2[C@H](c3ccc(Cl)c(Cl)c3)C2(Cl)Cl)ccc1Cl [F576, N-(2-Amino-4-fluorophenyl)-2-chloro-5-((1R,3R)-2,2-dichloro-3-(3,4-dichlorophenyl)cyclopropane-1-carboxamido)benzamide]
- pest or weed control at 50 µg/cm2 [1]: 50 to 100%
- pest or weed control at 50 µg/cm2 [2]: 50 to 100%
- YFM rating [3]: A (80-100)

Structure (SMILES): Nc1cc(F)ccc1NC(=O)c1cc(NC(=O)[C@H]2[C@H](c3cc(Cl)c(Cl)c(Cl)c3)C2(Cl)Cl)ccc1Cl [F577, N-(2-Amino-4-fluorophenyl)-2-chloro-5-((1R,3R)-2,2-dichloro-3-(3,4,5-trichlorophenyl)cyclopropane-1-carboxamido)benzamide]
- pest or weed control at 50 µg/cm2 [1]: 50 to 100%
- pest or weed control at 50 µg/cm2 [2]: 50 to 100%
- YFM rating [3]: A (80-100)

Structure (SMILES): Nc1cc(F)ccc1NC(=O)c1cc(NC(=O)[C@H]2[C@H](c3ccc(F)c(Cl)c3)C2(Cl)Cl)ccc1Cl [F578, N-(2-Amino-4-fluorophenyl)-2-chloro-5-((1R,3R)-2,2-dichloro-3-(3-chloro-4-fluorophenyl)cyclopropane-1-carboxamido)benzamide]
- pest or weed control at 50 µg/cm2 [1]: 50 to 100%
- pest or weed control at 50 µg/cm2 [2]: 50 to 100%
- YFM rating [3]: A (80-100)

Structure (SMILES): Nc1cc(NC(=O)c2cc(NC(=O)[C@H]3[C@H](c4ccc(Cl)c(Br)c4)C3(Cl)Cl)ccc2Cl)c(F)cc1F [F580, N-(5-Amino-2,4-difluorophenyl)-5-((1R,3R)-3-(3-bromo-4-chlorophenyl)-2,2-dichlorocyclopropane-1-carboxamido)-2-chlorobenzamide]
- pest or weed control at 50 µg/cm2 [1]: 50 to 100%
- pest or weed control at 50 µg/cm2 [2]: 50 to 100%
- YFM rating [3]: A (80-100)

Structure (SMILES): O=C(Nc1ccc(F)cc1F)c1cc(NC(=O)C2C(c3cc(F)c(F)c(F)c3)C2(Cl)Cl)ccc1Cl (stereo not drawn) [F581, 2-Chloro-5-trans-(2,2-dichloro-3-(3,4,5-trifluorophenyl)cyclopropane-1-carboxamido)-N-(2,4-difluorophenyl)benzamide]
- pest or weed control at 50 µg/cm2 [1]: 50 to 100%
- pest or weed control at 50 µg/cm2 [2]: 50 to 100%
- YFM rating [3]: A (80-100)

Structure (SMILES): O=C(Nc1cc(F)c(F)c(Br)c1)c1cc(NC(=O)[C@H]2[C@H](c3cc(Cl)cc(Cl)c3)C2(Cl)Cl)ccc1Cl [F583, N-(3-Bromo-4,5-difluorophenyl)-2-chloro-5-((1R,3R)-2,2-dichloro-3-(3,5-dichlorophenyl)cyclopropane-1-carboxamido)benzamide]
- pest or weed control at 50 µg/cm2 [1]: 50 to 100%
- pest or weed control at 50 µg/cm2 [2]: 50 to 100%
- YFM rating [3]: A (80-100)
